Assay results from paper PMC7851395 (British Journal of Cancer, 2020).

Assays:
[1] = tested on: PC-9 cells; test: MTT cytotoxicity assay, PC-9 cells; type: cell-based; details: Homo sapiens
Protocol: (§1) The cytotoxicity and viability of human NSCLC cells and normal cells were determined by MTT assay. MTT assay was performed as described previously.[22] MTT assay was used to determine the cell cytotoxicity and viability in human NSCLC cells. Cells (5 × 10^3 cells/well) were plated in 96-well plates and attached overnight. After the proper treatment, the MTT solution was added at 25 µL/well and incubated at 37 °C for 4 h. The formazan crystals were dissolved in 150 µL of DMSO, and the optical density (OD) was measured using a Microplate Reader at 490 nm. The cell viability was calculated by the following formula: viability = (average OD values of treatment wells/average OD values of vehicle control wells) × 100%. And half-maximal inhibitory concentration (IC50) values were determined by GraphPad Pro Prism 7.0.

[2] = tested on: H460 xenograft; type: in vivo, BALB/c nude mice; details: 2 mg/kg i.p. every other day, compared with vehicle
Protocol: All animal procedures were done accordingly with the Institutional laboratory animal research guidelines and were approved by Wenzhou Medical University Animal Policy and Welfare Committee. Female athymic BALB/c nude mice (5–6 weeks old) and immune-defective non-obese […] diabetic severe combined immunodeficiency (NOD-SCID) mice (6–8 weeks old) were purchased from the Vital River Experimental Animal Center (Beijing, China). All the mice were housed under 12 h light–dark cycles at 25 °C and free for water and diet. For the xenograft model, the H460 cells (5 × 10^6 cells were mixed with an equal volume of PBS and Matrigel in 100 μL) were implanted on the hind flank of nude mice. Once tumour volumes reached ~50 mm^3, 24 mice were divided into four experimental groups (six mice per group, no differences in mean body weights or tumour volumes between the groups) and intraperitoneal injection with 2 mg/kg SNS-032 (a recognised CDK9 inhibitor), bufalin and acetyl-bufalin every other day. Tumour volume was measured as V = (L × W × W)/2, in which L and W represent the length and width of tumour. Animals were killed by cervical dislocation once the tumour volume reached 1000 mm^3. The tumours, hearts, livers, kidneys and lungs were removed for use in the histology and western blot analysis.

[3] = tested on: H460 cells; test: MTT cytotoxicity assay, H460 cells; type: cell-based; details: Homo sapiens, NCI-H460
Protocol: as §1

[4] = tested on: A549 cells; test: MTT cytotoxicity assay, A549 cells; type: cell-based; details: Homo sapiens, A549
Protocol: as §1

[5] = Pharmacokinetic study in rat plasma (LC-MS/MS); type: in vivo, S.D. rats; details: 0.25 mg/kg i.v. and 2 mg/kg i.p.
Protocol: For the pharmacokinetic study, female S.D. rats (body weight 200 ± 10 g) have fasted overnight with free access to water before the experiment. Twelve rats were randomly divided into four groups. The time schedule included eight timepoints, and three S.D. rats were sampled at each time-point. Bufalin and acetyl-bufalin were administered intravenously and intraperitoneally to the rats at the dose of 0.25 mg/kg and 2 mg/kg, respectively. The animals had free access to water during the experiment. Blood samples were collected from the retro-orbital plexus of each rat at 0.083, 0.25, 0.5, 1, 2, 4, 6, 8, 12, 24 h after administration. Plasma was separated from the blood after centrifugation at 6000×g for 10 min and frozen at −20 °C until analysis. In total, 20 µL of standard samples in duplicate, quality control samples in duplicate and rat plasma samples were mixed with 60 µL of ethyl acetate containing IS (200 ng/mL of tolbutamide, 50 ng/mL of propranolol and 500 ng/mL of Dic) in EP tubes. After the mixture was vortexed for 1 min, then centrifuged for 10 min (13,000 rpm, 4 °C), transferred 50 µL supernatant to a 96-well plate with 150 µL purred water, shacked for 10 min and finally injected 5 µL into liquid chromatographic-tandem mass spectrometry (LC-MS/MS) system for analysis.

[6] = tested on: NIH mice; test: Acute toxicity test; type: in vivo; details: 30 mg/kg single intraperitoneal injection, observed 14 days, n = 10
Protocol: In the acute toxicity test, 30 NIH mice (female, 8 weeks old) were randomly divided into three groups (n = 10), including vehicle group, bufalin group (30 mg/kg) and acetyl-bufalin group (30 mg/kg). The three groups received intraperitoneal injection only on the first day. All the mice were housed under 12 h light–dark cycles at 25 °C and free for water and diet. […] All the mice were sacrificed by cervical dislocation.

[7] = tested on: P-CDK9, CDK9, P-STAT3 and S2 RNAPII; test: Western blot of CDK9/STAT3 pathway proteins; type: cell-based, human; details: H460 and PC-9 cells, 12 h; acetyl-bufalin 25-200 nM, SNS-032 200 nM
Protocol: Tissue proteins were extracted with tissue protein lysate buffer. Cells were grown to different densities and extracted with cell protein lysate buffer. The protein was mixed with loading buffer and boiled for 10 min at 100 °C, then loaded and separated by 10% or 12% sodium dodecyl sulfate-polyacrylamide gel (SDS-PAGE) and then transferred onto a PVDF membrane blocking with 5% skim milk. The blots were incubated overnight with specific primary antibodies at 4 °C. On the second day, after washing with TBST (a mixture of tris-buffered saline (TBS) and Tween 20) three times, the […] membranes were incubated with horseradish peroxidase-conjugated secondary antibodies for 1 h. The immunoreactive bands were visualised with enhanced chemiluminescence reagent.

[8] = tested on: NSCLC cells (PC-9, A549 or H460); test: cells; type: cell-based, human; details: Supplementary Table 1, cell line (PC-9, A549 or H460) not assignable
Protocol: as §1

[9] = target: T1, CDK9 (Homo sapiens, UniProt P50750); test: HuProt human proteome microarray binding; details: 10 μM on HuProt microarray, CDK9 spots
T1 construct: GST (N); purchased CDI Laboratories, Baltimore, MD Arrayit HuProt v2.0 19 K Human Proteome Microarrays
Protocol: Arrayit HuProt™ v2.0 19 K Human Proteome Microarrays (CDI Laboratories, Baltimore, MD) were blocked for 1 h with 3% BSA at room temperature. Biotinylated bufalin was diluted to 10 μM in blocking buffer and cultured on the proteome microarray at room temperature for 1 h. The arrays were washed with PBST (a mixture of PBS and Tween 20) and incubated with Cy3-Streptavidin at 1:1000 dilution (Sigma-Aldrich) for 1 h at room temperature. Finally, the microarray was spun dry and scanned with a GenePix 4200 A microarray scanner (Molecular Devices, San Jose, CA). Data were analysed by GenePix Pro 6.0 software. The signal-to-noise ratio (SNR) was defined as the ratio of median foreground value minus median background value. The cut-off value of SNR (>1.1) was set.

T1 sequence (P50750 whole entry): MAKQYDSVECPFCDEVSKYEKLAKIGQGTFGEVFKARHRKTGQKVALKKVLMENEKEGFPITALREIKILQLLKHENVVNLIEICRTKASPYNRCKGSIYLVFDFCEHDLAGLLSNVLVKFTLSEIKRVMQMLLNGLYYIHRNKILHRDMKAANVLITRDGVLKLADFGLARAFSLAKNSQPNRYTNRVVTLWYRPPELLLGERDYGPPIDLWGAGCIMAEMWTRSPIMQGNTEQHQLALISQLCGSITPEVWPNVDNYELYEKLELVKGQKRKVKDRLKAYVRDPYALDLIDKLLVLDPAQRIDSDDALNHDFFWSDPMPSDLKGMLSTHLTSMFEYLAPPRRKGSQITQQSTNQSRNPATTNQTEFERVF

With `C[C@]12CC[C@H](O)C[C@H]1CC[C@@H]1[C@@H]2CC[C@]2(C)[C@@H](c3ccc(=O)oc3)CC[C@]12O` [bufalin, reference compound] the IC50 ([1]; PC-9, 48 h) was 141 nM, the “tumour growth (weight and volume)” value [2] was “significantly inhibited tumour growth” and the IC50 [3] was 64.7 nM. For the same molecule, the IC50 [4] was 83.2 nM, the absorption [5] was “fast absorption” and the “mortality (mice died)” value [6] was 10/10.

In the case of `CC(C)(C)c1cnc(CSc2cnc(NC(=O)C3CCNCC3)s2)o1` [SNS-032, reference compound], the “tumour growth (weight and volume)” value [2] is reported as “significantly inhibited tumour growth” and the “P-CDK9, CDK9, P-STAT3 and S2 RNAPII expressions” value [7] is reported as “significantly dose-dependently decreased”.

`CC(=O)O[C@H]1[C@H]2O[C@]23[C@@H]2CC[C@@H]4C[C@@H](O)CC[C@]4(C)[C@H]2CC[C@]3(C)[C@H]1c1ccc(=O)oc1` [Cinobufagin] gave an IC50 ([8]; Homo sapiens) of 414 nM.

`CC(=O)O[C@H]1[C@H]2O[C@]23[C@@H]2CC[C@]4(O)C[C@@H](O)CC[C@]4(C)[C@H]2CC[C@]3(C)[C@H]1c1ccc(=O)oc1` [Cinobufotalin] gave an IC50 ([8]; Homo sapiens) of 587 nM.

With `C[C@]12CC[C@H](OC(=O)CCCC[C@@H]3SC[C@@H]4NC(=O)N[C@@H]43)C[C@H]1CC[C@@H]1[C@@H]2CC[C@]2(C)[C@H](c3ccc(=O)oc3)CC[C@@]12O` [bio-bufalin] the IC50 ([1]; PC-9, 48 h) was 77.1 nM and the “signal-to-noise ratio (SNR)” value [9] was 6.748.

Molecule `CC(=O)O[C@H]1C[C@]2(O)[C@@H]3CC[C@@H]4C[C@@H](O)CC[C@]4(C)[C@H]3CC[C@]2(C)[C@H]1c1ccc(=O)oc1` [Bufotalin] has an IC50 ([8]; Homo sapiens) of 813 nM.

For `C[C@]12CC[C@H](O)C[C@H]1CC[C@@H]1[C@@H]2CC[C@]2(C)[C@@H](c3ccc(=O)oc3)C[C@H]3O[C@]132` [Resibufogenin], the IC50 ([1]; PC-9) was 4640 nM, the IC50 [3] was 1060 nM and the IC50 [4] was 1130 nM.

Work on Resibufagin yielded an IC50 [8] of 16000 nM.
